# What was measured:
# [1] = molecular target: Melatonin receptor type 1A (Ovis aries, UniProt P48040)
# [2] = molecular target: T1, Melatonin receptor type 1B (Homo sapiens, UniProt P49286)
# T1 sequence (P49286 whole entry): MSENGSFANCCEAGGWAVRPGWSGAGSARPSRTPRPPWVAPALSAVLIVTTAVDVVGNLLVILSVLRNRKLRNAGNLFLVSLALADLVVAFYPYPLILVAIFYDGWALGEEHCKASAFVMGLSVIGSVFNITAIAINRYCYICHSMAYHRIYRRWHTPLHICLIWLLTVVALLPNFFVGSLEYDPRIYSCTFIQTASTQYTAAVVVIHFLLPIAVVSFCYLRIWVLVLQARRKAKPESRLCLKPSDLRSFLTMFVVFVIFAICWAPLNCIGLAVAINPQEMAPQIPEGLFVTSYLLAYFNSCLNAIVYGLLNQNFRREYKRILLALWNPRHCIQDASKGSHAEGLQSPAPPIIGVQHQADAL
# Chain of Melatonin receptor type 1A (P48040 whole entry): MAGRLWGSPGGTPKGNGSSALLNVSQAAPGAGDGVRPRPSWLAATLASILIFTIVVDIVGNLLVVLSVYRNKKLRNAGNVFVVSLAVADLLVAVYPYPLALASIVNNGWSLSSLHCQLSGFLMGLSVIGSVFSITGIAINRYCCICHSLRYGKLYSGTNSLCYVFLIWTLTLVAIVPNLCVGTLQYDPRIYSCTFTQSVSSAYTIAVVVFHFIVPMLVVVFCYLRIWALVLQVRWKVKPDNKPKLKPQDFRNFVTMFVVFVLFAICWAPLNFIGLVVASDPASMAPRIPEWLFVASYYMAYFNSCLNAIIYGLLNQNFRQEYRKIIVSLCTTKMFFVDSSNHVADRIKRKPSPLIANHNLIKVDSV
SMILES,Ki [1] [nM],Ki [2] [nM]
NCCc1c[nH]c2ccc(O)cc12 [[3H]-5-HT],> 10000,
CC(=O)n1cc(CCN)c2cc(O)ccc21 [NSC_260803],140,170
COc1cc2c(CCNC(C)=O)c[nH]c2cc1Cl,0.25,
COc1ccc2[nH]c(I)c(CCNC(C)=O)c2c1,0.03,
"COc1cc2c(CCNC(C)=O)c[nH]c2cc1O [melatonin, 6-Hydroxy]",,2

# — BindingDB's records for doi:10.1016/0896-6273(94)90055-8 (Massachusetts General Hospital, 1994)
